Data on 4 compounds can be found in article PMC10939713 (Pharmaceutical research, 2024).

Molecules are shown by their SMILES. Entries after “also recorded” stand apart in the source; their conditions may differ. Structures can show the parent of a compound that is named as a salt.

A short description of data set [1]: Mouse pharmacokinetic natural product-drug interaction study. Type of data set: in vivo, C57BL/6 mice. Particulars: for AUC(0-t) / Cmax / AUC0-4h / AUC0-24h / Metabolite-to-parent AUC0-4h ratio / Metabolite-to-parent AUC0-24h ratio: geometric mean (CV%); for tmax: median (range).
For data set [2] the following is noted: cited from earlier work.
The conditions of data set [3]: cited from earlier work. The source holds these as a separate data set.
Data set [4] can be described thus: Drug solubility in simulated intestinal fluids. The format is physicochemical.
The conditions of data set [5]: rats; EGCG group (control group 79%); cited from earlier work.
For data set [6] the following is noted: rats; oral administration of EGCG and sunitinib; cited from earlier work.
For data set [7] the following is noted: FeSSIF pH 5.0.
For data set [8] the following is noted: FaSSIF pH 6.5.
Setting [9] is: mice, plasma, raloxifene 20 mg/kg oral with EGCG 12.96 mg/kg.
Setting [10] is: mice, plasma, raloxifene 20 mg/kg oral with green tea extract 200 mg/kg.
The mark [11] stands for this setting: mice, raloxifene 20 mg/kg oral alone in vehicle.
Setting [12] is: mice, raloxifene 20 mg/kg oral with EGCG 12.96 mg/kg.
Setting [13] is: mice, raloxifene 20 mg/kg oral with green tea extract 200 mg/kg.

As a reminder, the AUC(0-t) is exposure summed from dosing to a finite time, without extrapolation to infinity. Broadly, the Cmax is the peak of the concentration-time curve. As usually defined, the logP is a log measure of how a compound divides between an organic and an aqueous phase. For the compound `O=C(c1ccc(OCCN2CCCCC2)cc1)c1c(-c2ccc(O)cc2)sc2cc(O)ccc12` [Raloxifene, Raloxifene hydrochloride], the “overt effects in the mice after administration” value in data set [1] (during the study) was “No overt effects”. Further, the AUC(0-t) turned out to be 0.322 µM·h in data set [1] (male, C57BL/6, mouse, plasma, po, 20 mg/kg, AUC0-4h, mice, raloxifene 20 mg/kg oral with EGCG 12.96 mg/kg); 0.2 µM·h in data set [1] (male, C57BL/6, mouse, plasma, po, 20 mg/kg, AUC0-4h, mice, raloxifene 20 mg/kg oral with green tea extract 200 mg/kg); 0.867 µM·h in data set [1] (male, C57BL/6, mouse, plasma, po, 20 mg/kg, AUC0-24h, mice, raloxifene 20 mg/kg oral with EGCG 12.96 mg/kg); 0.669 µM·h in data set [1] (male, C57BL/6, mouse, plasma, po, 20 mg/kg, AUC0-24h, mice, raloxifene 20 mg/kg oral with green tea extract 200 mg/kg). The Cmax stood at 168 nM in data set [1] (male, C57BL/6, mouse, plasma, po, 20 mg/kg, Cmax, mice, raloxifene 20 mg/kg oral with EGCG 12.96 mg/kg (0, 4, 8 h)) and 79 nM in data set [1] (male, C57BL/6, mouse, plasma, po, 20 mg/kg, Cmax, mice, raloxifene 20 mg/kg oral with green tea extract 200 mg/kg (0, 4, 8 h)). For the same compound, the tmax in data set [1] (male, C57BL/6, mouse, plasma, po, 20 mg/kg, tmax, mice, raloxifene 20 mg/kg oral with EGCG 12.96 mg/kg) turned out to be 0.5 h; in data set [1] (male, C57BL/6, mouse, plasma, po, 20 mg/kg, tmax, mice, raloxifene 20 mg/kg oral with green tea extract 200 mg/kg), 4 h. Besides, the logP in data set [2] is 5.78. Besides, the oral bioavailability in data set [3] is ~ 2%. Further, the “raloxifene solubility in FeSSIF compared to FaSSIF” value in data set [4] (FeSSIF pH 5.0 vs FaSSIF pH 6.5) is recorded as 3.4 fold.

For `O=C(O[C@@H]1Cc2c(O)cc(O)cc2O[C@@H]1c1cc(O)c(O)c(O)c1)c1cc(O)c(O)c(O)c1` [EGCG, (−)-epigallocatechin gallate], the “intestinal absorption of cholesterol from a test meal” value in data set [5] is 63%. In data set [6], the “reduction of sunitinib AUC0-∞” value was 52% and the “reduction of sunitinib Cmax” value is recorded as 48%. The “effect on Cmax of raloxifene and raloxifene-6-glucuronide (in words)” value in data set [1] (mice, compared to vehicle group, EGCG 12.96 mg/kg) was “no effect”. The “effect on raloxifene solubility (concentration) in FeSSIF (in words)” value in data set [7] is “neither green tea extract nor EGCG significantly affected; also recorded: did not change; also recorded: Neither green tea extract nor EGCG had a significant effect”. Also, the “effect on raloxifene solubility in FaSSIF (in words)” value in data set [8] is on record as “decreased the solubility”.

As to `CC(C)(C)NCC(O)COc1cccc2c1CC(O)C(O)C2` (centres unmarked) [Nadolol], the logP in data set [2] is listed as 0.85. In addition, the “solubility in simulated intestinal fluids (in words)” value in data set [4] (at 0.16 mg/mL) was “completely soluble”.

As to `O=C(c1ccc(OCCN2CCCCC2)cc1)c1c(-c2ccc(O)cc2)sc2cc(O[C@@H]3O[C@H](C(=O)O)[C@@H](O)[C@H](O)[C@H]3O)ccc12` [Raloxifene-6-glucuronide, raloxifene-6-glucuronide], the Cmax was found to be 820 nM in data set [1] (mice, plasma, raloxifene 20 mg/kg oral with EGCG 12.96 mg/kg (0, 4, 8 h)) and 288 nM in data set [1] (mice, plasma, raloxifene 20 mg/kg oral with green tea extract 200 mg/kg (0, 4, 8 h)). Moreover, the AUC0-4h in data set [1] (setting [9]) is on record as 1200 (53) nM•h; in data set [1] (setting [10]) it was 624 (31) nM•h. In addition, the AUC0-24h is reported as 2150 (52) nM•h in data set [1] (setting [9]) and 1560 (32) nM•h in data set [1] (setting [10]). Also, the “Metabolite-to-parent AUC0-4h ratio” value is recorded as 2.74 (30) in data set [1] (setting [11]), 3.74 (25) in data set [1] (setting [12]) and 3.12 (34) in data set [1] (setting [13]). The “Metabolite-to-parent AUC0-24h ratio” value is recorded as 2.23 (36) in data set [1] (setting [11]), 2.48 (38) in data set [1] (setting [12]) and 2.33 (24) in data set [1] (setting [13]). Besides, the tmax in data set [1] (setting [11]) is given as 0.25 (0.25 - 0.5) h; in data set [1] (setting [12]), 0.5 (0.25 - 4) h; in data set [1] (setting [13]), 0.25 (0.25 - 0.5) h.
